For this test, the system named is SH-SY5Y cells transfected with AP180-C. Put plainly: Uptake in cells overexpressing AP180-C. The test is classed as cell-based, human. As to conditions: SH-SY5Y 24 h post transfection; HF488-labelled Aβ 1 µM 1 h or AF647-Trf 5 µg/ml 5 min; low and high mRFP gates; N = 2, n = 2–4. How it is done: Flow cytometry was used to quantify cellular uptake. The samples were washed in serum free medium (1x for experiments including only Aβ and 3x for experiments with Trf) prior to incubation with Aβ peptides and/or other reagents in serum free medium supplemented with 30 mM HEPES and 2% B-27. For experiments including Trf B-27 was omitted, as outlined above. Prior to analysis, the cells were washed 1x (for experiments including only Aβ) or 3x (for experiments including Aβ and dextran 10 kDa or Trf) in serum free medium, detached by trypsin-EDTA for 10 min followed by addition of FBS-supplemented cell culture medium to inhibit further proteolytic degradation. All samples were kept on ice until they were analysed on a Guava EasyCyte 8HT (Millipore, Darmstadt, Germany) that automatically retrieves samples from a 96-well plate. In order to exclude effects due to difference in delay time we used mixed order of analysis, loading only a few samples at a time with the remaining samples kept on ice. The cell counting gate was determined using propidium iodide (0.5 µM, not washed away prior to analysis) and calcein-AM (10 nM, 15 min staining) to distinguish live and dead cells, and for each sample 5,000 cells from within the live gate were counted and analysed. HF488, AlexaFluor488, EGFP and calcein-AM were excited by a 488 nm laser and their fluorescence was detected through a 525/30 nm filter. Propidium iodide and mRFP were excited by the 488 nm laser but detected through a 692/46 nm filter. HF647 and AlexaFluor647 were excited with a 635 nm laser and detected through a 661/19 nm filter. Compensation was performed to adjust for bleed through in experiments including mRFP. Mean cellular uptake was estimated as the average fluorescence intensity of all cells gated within the live region and all individual experiments were performed with three technical replicates (n = 3) unless else is stated. The average fluorescence intensity was baseline corrected by subtracting the signal for unstained cells. […]

Take “Aβ(1–40): Synthetic 40 residue amyloid-β peptide conjugated to HiLyte Fluor HF488 (or HF647) at the N-terminus, from Anaspec”: the “uptake in AP180-C transfected cells compared to non-transfected cells” value is given as “neither Aβ(1–40) nor Aβ(1–42) uptake was affected”.
To “Aβ(1–42): Synthetic 42 residue amyloid-β peptide conjugated to HiLyte Fluor HF488 (or HF647) at the N-terminus, from Anaspec” belongs “small but statistically significant increase”.

(Values after article PMC5435687 (Scientific Reports, 2017).)
